# Read-outs that look alike come from different tables or passages of the source.
# Tests used:
# [1] = system: CFA induced PGE2 release in the ipsilateral inflamed hind paw of human KI mice (expressing human PTGES); assay: PGE2 measurements in CFA inflammation model using humanized KI mice; assay type: in vivo; settings: for % inhibition of PGE2 in vivo vs vehicle: p.o., single dose, hind paw 48 h after CFA, 1 h after dose; for inhibition of CFA-induced PGE2 formation/release in the hind paw: single oral dosing, hu KI mice
# Procedure: PGE2 Measurements in CFA Inflammation Model Using Humanized KI Mice
# Female transgenic mice expressing the human PTGES enzyme (Taconic, Xu et al. 2008) received intraplantar injection of complete Freund's adjuvant (CFA) (30 μl, 1 mg/ml, Sigma) into the left hind paw under isoflurane anesthesia. […] At termination of the experiments (48 h after CFA, 1 h after dose), hind paw tissue is collected for analysis of PGE2 levels (ELISA, Cayman Chemical item no. 514531). […] Statistical analysis is performed with one-way analysis of variance, followed by Bonferroni's multiple comparison test vs. vehicle controls using the GraphPad PRISM software, *p<0.05, **p<0.01.
# [2] = Unbound plasma concentration in human KI mice of the CFA model; assay type: in vivo; settings: female, human PTGES knock-in (humanized KI, transgenic) mice, mouse, read-out: Plasma concentration Cplasma-unbound
# Procedure: At termination of the experiments (48 h after CFA, 1 h after dose), hind paw tissue is collected for analysis of PGE2 levels (ELISA, Cayman Chemical item no. 514531). […] Statistical analysis is performed with one-way analysis of variance, followed by Bonferroni's multiple comparison test vs. vehicle controls using the GraphPad PRISM software, *p<0.05, **p<0.01.
# [3] = system: CFA-induced pain behavior in WT mice; assay: CFA inflammation model with pain read out (dynamic weight bearing); assay type: in vivo; settings: single oral dosing on day 2 post-CFA, example 17: 30, 100 mg/kg, example 44: 30, 75 mg/kg
# Procedure: Efficacy in CFA Inflammation Model with Pain Read Out
# Wild type (WT) female c57bl/6 mice (Taconic) received intraplantar injection of complete Freund's adjuvant (CFA) (30 μl, 1 mg/ml, Sigma) into the left hind paw under isoflurane anesthesia. […] Spontaneous pain-related behavior in freely moving animals was assessed using the automated dynamic weight bearing device (DWB, Bioseb, France) according to published and validated protocols: Robinson I, Sargent B, Hatcher J P, Neurosci Lett. 2012 Aug. 30; 524(2):107-10. Use of dynamic weight bearing as a novel end-point for the assessment of Freund's Complete Adjuvant induced hypersensitivity in mice; Tétreault P, Dansereau M A, Doré-Savard L, Beaudet N, Sarret P. Physiol Behav. 2011 Sep. […] 2014 Jul. 30; 232:118-24. Use of dynamic weight bearing as a novel end-point for the assessment of abdominal pain in the LPS-induced peritonitis model in the rat. For behavioral testing, the animal was placed inside a Plexiglas chamber and allowed to move freely within the apparatus for a 5 min period, subsequently pain behavior is recorded for a test period of another 5 min.
# Statistical analysis is performed with one-way analysis of variance, followed by Bonferroni's multiple comparison test vs. vehicle controls using the GraphPad PRISM software, *p<0.05, **p<0.01.
# human PTGES = human PTGES (Homo sapiens (Human), UniProt O14684); assay: Human PTGES biochemical enzyme inhibition assay (conversion of PGH2 to PGE2, TR-FRET)
# human PTGES, sequence (O14684 whole entry): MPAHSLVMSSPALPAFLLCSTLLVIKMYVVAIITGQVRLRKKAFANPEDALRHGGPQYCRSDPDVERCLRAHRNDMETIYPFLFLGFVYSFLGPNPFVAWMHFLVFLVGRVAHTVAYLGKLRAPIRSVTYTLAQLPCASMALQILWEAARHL
# How it was run: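 FLAG-tagged human PTGES from Hi-5 insect cells preincubated 15–20 min with compound in pH 7.2 phosphate buffer with 2.5 mM reduced glutathione; reaction started with 8 nM PGH2 final, stopped with SnCl2/KF.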
# [4] = system: vaginal hyperalgesia and proliferation in endometriotic lesions; assay: Endometriosis disease model (dyspareunia model); assay type: in vivo, rat; settings: 0.75 mg/kg, bid, p.o.
# Source text: Endometriosis Disease Model (Dyspareunia Model)
# Female SD rats underwent endometriosis surgery in the estrus phase. 4 uterine fragments were sewn onto the mesenteric artery arc (closed to small intestine) and few other fragments (>2) were sewn onto the distal colonic wall. In parallel electrodes for later Electromyography (EMG) recordings were implanted in the abdominal wall to allow recording of the visceral motor response. After training viscero-motor response (VMR)/vaginal distension (VD) testing was performed 5 and 6 weeks post-surgery in the proestrus phase. For vaginal distension session, the uninflated balloon was lubricated and inserted into the mid-vaginal canal, located so, that it would not touch the cervix even when inflated. Inflating the balloon with different volumes of water using a computer-controlled pump distended the vaginal canal. In parallel, EMG recordings were collected to measure the VMR related to the distension. At 6 weeks, post-surgery endometriotic lesions and endometrium were excised to perform lesion analysis. RNA expression analysis was performed of lesions and endometrium. RNA of lesions and endometrium was isolated after homogenization of tissues in guanidinium thiocyanate using the RNeasy mini Kit (Qiagen) with DNase digestion. One microgram of RNA was reversely transcribed with random hexamers using the SuperScript III First-Strand Synthesis System (Invitrogen). Real-time Taqman PCR analysis was performed using the 7900HT Real Time PCR-System (Applied Biosystems). Prevalidated probes and primers for Mki67 (antigen identified by monoclonal antibody Ki-67; catalog No. Rn01451446_m1) and the endogenous control TBP* (see FIG. 1A; TATA box binding protein; catalog No. Rn01455646_m1) were purchased from Applied Biosystems. Relative mRNA levels were calculated using the comparative […]CT method using the RQ-Manager software (Applied Biosystems).
# Example 17 (0.75 mg/kg, bid, p.o.) was administered twice daily starting end of week 2 post surgery until week 5 post surgery.
# [5] = Enzymatic conversion of PGH2 to PGE2, read-out: Human PTGES IC50
# [6] = human PTGES, as listed in Table 2, read-out: hu IC50 biochem.
SMILES,% inhibition of PGE2 in vivo vs vehicle ([1]; 1 mg/kg) [%],% inhibition of PGE2 in vivo vs vehicle ([1]; 3 mg/kg) [%],% inhibition of PGE2 in vivo vs vehicle ([1]; 10 mg/kg) [%],inhibition of CFA-induced PGE2 formation/release in the hind paw [1],"concentration at 1 h ([2]; plasma, oral, 1 mg/kg) [nM]","concentration at 1 h ([2]; plasma, oral, 3 mg/kg) [nM]","concentration at 1 h ([2]; plasma, oral, 10 mg/kg) [nM]",pain behavior as assessed by DWB after CFA-induced inflammation [3],IC50 (human PTGES; [5]) [nM],IC50 (human PTGES; [6]) [nM],"concentration at 1 h ([2]; in vivo, 1 mg/kg) [nM]","concentration at 1 h ([2]; in vivo, 3 mg/kg) [nM]","concentration at 1 h ([2]; in vivo, 10 mg/kg) [nM]","vaginal hyperalgesia versus vehicle-treated animals ([4]; end of week 2 until week 5 post surgery, rats)",proliferation in lesions (gene expression of proliferation marker Ki67 vs. housekeeping control) ([4]; Taqman in week 6),vaginal hyperalgesia effect in the treatment free period ([4]; treatment free period of week 6)
"Cc1c(CCC(=O)O)cccc1NC(=O)C(c1ccc(-c2cncc(Cl)c2)c(F)c1)C1CCCC1 (single isomer, unassigned; (-)) [Example 44, (−) 3-[3-({[4-(5-Chloropyridin-3-yl)-3-fluorophenyl](cyclopentyl)acetyl}amino)-2-methylphenyl]propanoic acid]",95,65,100,strong efficacy,15,47,173,significantly and dose-dependently reduced pain behavior,–,–,–,–,–,–,–,–
"Cc1c(CCC(=O)O)cccc1NC(=O)C(c1ccc(-c2cncc(C(F)(F)F)c2)c(F)c1)C1CCCC1 (single isomer, unassigned; (-)) [Example 48, (−) 3-{3-[(Cyclopentyl{3-fluoro-4-[5-(trifluoromethyl)pyridin-3-yl]phenyl}acetyl)amino]-2-methylphenyl}propanoic acid]",38,74,78,–,–,–,–,–,14.2,3,11,32,88,–,–,–
"Cc1c(CCC(=O)O)cccc1NC(=O)C(c1ccc(-c2cncc(C(F)(F)F)c2)cc1)C1CCC1 (single isomer, unassigned; (-)) [Example 55, (−) 3-{3-[(Cyclobutyl{4-[5-(trifluoromethyl)pyridin-3-yl]phenyl}acetyl)amino]-2-methylphenyl}propanoic acid]",84,93,96,–,–,–,–,–,35.4,27,34,103,322,–,–,–
"Cc1c(NC(=O)C(c2ccc(-c3cncc(Cl)c3)cc2)C2CCCC2)cccc1C(C)CC(=O)O (single isomer, unassigned; stereoisomer 2) [Example 87, 3-[3-({[4-(5-Chloropyridin-3-yl)phenyl](cyclopentyl)acetyl}amino)-2-methylphenyl]butanoic acid, Stereoisomer 2]",43,65,67,–,25,75,172,–,–,–,–,–,–,–,–,–
"Cc1c(CCC(=O)O)cccc1NC(=O)[C@@H](c1ccc(-c2cncc(C(F)(F)F)c2)cc1)C1CCCC1 [Example 2, (−) (R) 3-{3-[(Cyclopentyl{4-[5-(trifluoromethyl)pyridin-3-yl]phenyl}acetyl)amino]-2-methylphenyl}propanoic acid]",37,75,94,–,21,62,190,–,–,–,–,–,–,–,–,–
"Cc1c(CCC(=O)O)cccc1NC(=O)[C@@H](c1ccc(-c2cncc(Cl)c2)cc1)C1CCCC1 [Example 17, (−) (R) 3-[3-({[4-(5-Chloropyridin-3-yl)phenyl](cyclopentyl)acetyl}amino)-2-methylphenyl]propanoic acid]",–,–,88,strong efficacy,–,–,380,significantly and dose-dependently reduced pain behavior,35.2,35,–,–,–,significantly decreased vaginal hyperalgesia,significantly reduced proliferation in lesions,effect was maintained
